According to publication PMC6038798, “Dissecting how modular polyketide synthase ketoreductases interact with acyl carrier protein-attached substrates” (Chemical Communications (Cambridge, England), 2017):

Columns and labels:
mKRb = molecular target: T1, mKRb (Mycobacterium ulcerans, UniProt Q6MZ72); assay: isothermal titration calorimetry; type: binding
T1 construct: gene mlsB; excised B1-type ketoreductase domain of module 7 of MLSB; recombinant, purified
Description: isothermal titration calorimetry on mKRb

mKRa = molecular target: T2, mKRa (Mycobacterium ulcerans, UniProt Q6MZA4); assay: isothermal titration calorimetry; type: binding
T2 construct: gene mlsA1; excised A1-type ketoreductase domain of module 5 of MLSA1; recombinant, purified
Description: isothermal titration calorimetry on mKRa

[1] = molecular target: mKRb, B1-type ketoreductase (KR) domain from module 7 of MLSB of the mycolactone polyketide synthase (Mycobacterium ulcerans); assay: ITC; ACP species titrated against the KR domain in the presence of excess NADP+ (oxidised cofactor); three repeat experiments
[2] = molecular target: mKRb, B1-type ketoreductase (KR) domain from module 7 of MLSB of the mycolactone polyketide synthase (Mycobacterium ulcerans); assay: ITC; ACP species injected into a solution of the KR domain in the presence of excess NADPH; three repeat experiments

With `CC(C)(CO)[C@@H](O)C(=O)NCCC(=O)NCCS` [compound 2, R-Pantetheine] the Kd (mKRb) was 1.2 ± 0.3 µM and the Kd (mKRa) was 1.1 ± 0.04 µM.

In the case of `CC(C)(CO)[C@@H](O)C(=O)NCCC(=O)O` [compound 3, Pantothenate], the Kd (mKRb) is reported as 0.7 ± 0.1 µM and the Kd (mKRa) is reported as 0.7 ± 0.13 µM.

`CC(C)(CO)[C@@H](O)C(=O)O` [compound 4, Pantoate] showed a Kd (mKRb) of 0.6 ± 0.1 µM and a Kd (mKRa) greater than 1000 µM.

Molecule `NCCS` [compound 5, Cysteamine] has a Kd (mKRb) greater than 1000 µM and a Kd (mKRa) greater than 1000 µM.

`NCCC(=O)O` [compound 6, β-Alanine] was tested, and the Kd (mKRb) was 0.5 ± 0.09 µM and the Kd (mKRa) was 0.97 ± 0.04 µM.

`CC(=O)NCCS` [compound 7, N-Acetyl cysteamine] gave a Kd (mKRb) of 1.4 ± 0.3 µM and a Kd (mKRa) of 1.03 ± 0.02 µM.

Work on “Acetoacetyl-mACPb (1b) (domain or fragment)” yielded a Kd [1] of 0.38 µM.

Work on “apo mACPa, acyl carrier protein domain cognate to mKRa (module 5 of MLSA1), apo form (domain or fragment)” yielded a Kd [2] of 2.2 µM.

With “apo mACPb, acyl carrier protein domain cognate to mKRb (module 7 of MLSB), apo form (domain or fragment)” the Kd [2] was 2.6 µM and the Kd [1] was 2.2 µM.

holo mACPa (1a) (domain or fragment) showed a Kd [2] of 0.63 µM.

Work on holo mACPb (1a) (domain or fragment) yielded a Kd [2] of 0.61 µM, a stoichiometry N [2] of 1 and a Kd [1] of 0.75 µM.

“β-Hydroxybutyryl-mACPb (1c) (domain or fragment)” was tested, and the Kd [2] was 0.27 µM.
